Measured values published in US5225528A, “Cyclic hexapeptide oxytocin antagonists” (priority 1990, dated 1993).
pIC50: −log10 of the molar value. Read-outs that look alike come from different tables or passages of the source. Numbered stars: 1 amine (or outer) side, 2 acyl side, 3 side chain; on linkers, the order of the positions; unused ones are H or OH. Square brackets hold non-standard residues; d marks the D form. Peptide text beside a SMILES is read from it. * marks the point of attachment. dPip(4-aza,4-Cbz) = O=C(O)[C@H]1CN(C(=O)OCc2ccccc2)CCN1; X2 = O=C(OCc1ccccc1)N1CCN([*:1])[C@H](C(=O)[*:2])C1; X5 = CC(C)(C)OC(=O)CN1CCN([*:1])[C@H](C(=O)[*:2])C1; d2Nal = N[C@H](Cc1ccc2ccccc2c1)C(=O)O; dNMehPhe = CN[C@H](CCc1ccccc1)C(=O)O; d(hPhe) = N[C@H](CCc1ccccc1)C(=O)O; NMeI = CC[C@H](C)[C@H](NC)C(=O)O; Pip(4-aza) = O=C(O)[C@@H]1CNCCN1; dNMeF = CN[C@H](Cc1ccccc1)C(=O)O; X7 = C[N+]12CCC(CC1)C(C(=O)*)C2; Pip = O=C(O)[C@@H]1CCCCN1; dPip = O=C(O)[C@H]1CCCCN1; Boc = CC(C)(C)OC(=O)*; Bn = c1ccc(C*)cc1; tBu = CC(C)(C)*

Tests used:
uterine OT receptors = target: T1, uterine OT receptors (Rattus norvegicus, UniProt P70536); assay: [^3 H]OT binding to uterine OT receptors, crude membrane preparation of uteri from DES-treated rats; conditions: for IC50: rat uterus membranes, 1 nM [^3 H]OT, read-out: Receptor Binding Results IC50 (nM) [^3 H]OT; for inhibition at 1 µM / inhibition at 0.1 µM / inhibition at 0.01 µM: 1 h, read-out: [^3 H]OT: percent inhibition of radioligand at the given concentration; for inhibition at 1 µM: @ 1,000 (nM); for inhibition at 0.1 µM: @ 100 (nM); for inhibition at 0.01 µM: @ 10 (nM)
T1 construct: from tissue; host or cells: uterus of DES-treated rats, crude membranes
T1 sequence (P70536 1-388): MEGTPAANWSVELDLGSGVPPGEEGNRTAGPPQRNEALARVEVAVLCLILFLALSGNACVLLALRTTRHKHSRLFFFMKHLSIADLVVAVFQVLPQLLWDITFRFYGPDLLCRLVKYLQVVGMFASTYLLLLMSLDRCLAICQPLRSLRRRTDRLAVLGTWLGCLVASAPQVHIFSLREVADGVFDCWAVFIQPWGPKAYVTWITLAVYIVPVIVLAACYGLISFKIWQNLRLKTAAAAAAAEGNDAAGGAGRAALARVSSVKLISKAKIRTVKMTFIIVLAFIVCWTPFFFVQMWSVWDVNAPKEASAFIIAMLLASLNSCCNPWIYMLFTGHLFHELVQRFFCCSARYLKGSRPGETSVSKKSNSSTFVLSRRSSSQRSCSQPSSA
Protocol: Competition studies were conducted at equilibrium (60 minutes; 22° C.) using 1 nM [^3 H]OT in the following assay buffer: 50 mM Tris-HCl, 5 mM MgCl2, and 0.1% BSA, pH 7.4.

AVP-V1 sites = target: T2, AVP-V1 sites (Rattus norvegicus, UniProt P30560); assay: [^3 H]AVP binding to crude membrane preparation of male rat liver (AVP-V1 sites)
T2 construct: crude membrane preparation of male rat liver (AVP-V1 sites); from tissue; host or cells: male rat liver, crude membranes
T2 sequence (P30560 whole entry): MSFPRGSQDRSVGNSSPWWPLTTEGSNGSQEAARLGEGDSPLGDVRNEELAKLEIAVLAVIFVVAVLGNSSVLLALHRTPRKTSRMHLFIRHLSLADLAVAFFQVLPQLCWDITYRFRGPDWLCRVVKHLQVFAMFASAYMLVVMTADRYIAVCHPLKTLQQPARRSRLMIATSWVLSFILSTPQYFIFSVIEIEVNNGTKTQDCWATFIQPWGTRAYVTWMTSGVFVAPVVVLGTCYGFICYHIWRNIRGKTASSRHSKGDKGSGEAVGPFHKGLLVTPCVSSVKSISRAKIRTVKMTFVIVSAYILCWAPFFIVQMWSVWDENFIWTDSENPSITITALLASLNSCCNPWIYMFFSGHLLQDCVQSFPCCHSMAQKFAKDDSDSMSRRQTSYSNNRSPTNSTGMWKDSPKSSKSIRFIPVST
Protocol: (§1) Nonspecific binding (5-10% of the total binding) was determined using 10 μM unlabeled AVP, and the binding reaction was terminated by filtration as described above for the [^3 H]OT binding assay.

AVP-V2 sites = target: T3, AVP-V2 sites (Rattus norvegicus, UniProt Q00788); assay: [^3 H]AVP binding to crude membrane preparation of male rat kidney medulla (AVP-V2 sites); conditions: for IC50: read-out: Receptor Binding Results IC50 (nM) [^3 H]-AVP-V2; for inhibition at 1 µM: 0.5 h, read-out: [^3 H]-AVP-V2: percent inhibition of radioligand at the given concentration
T3 construct: male rat liver (AVP-V1 sites) or kidney medulla (AVP-V2 sites); from tissue; host or cells: male rat kidney medulla, crude membranes
T3 sequence (Q00788 whole entry): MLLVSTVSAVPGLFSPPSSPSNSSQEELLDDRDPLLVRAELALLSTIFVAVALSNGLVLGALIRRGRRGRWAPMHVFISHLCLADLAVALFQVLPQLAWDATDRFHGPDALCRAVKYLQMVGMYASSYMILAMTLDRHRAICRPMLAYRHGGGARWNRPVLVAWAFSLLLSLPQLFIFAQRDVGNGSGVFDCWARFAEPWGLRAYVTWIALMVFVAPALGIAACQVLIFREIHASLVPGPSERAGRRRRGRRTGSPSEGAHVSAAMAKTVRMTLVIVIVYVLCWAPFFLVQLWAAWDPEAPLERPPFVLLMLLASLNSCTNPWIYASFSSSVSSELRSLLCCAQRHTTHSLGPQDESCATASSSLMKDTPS
Protocol: as §1

[1] = Receptor Binding Results IC50 (nM) [^3 H]-AVP-V1
[2] = rat kidney medulla membranes, 2 nM [^3 H]AVP
[3] = read-out: Receptor Binding Results IC50 (nM) [^3 H]-AVP-V1

Row | Compound | IC50 (uterine OT receptors) [nM] | IC50 (AVP-V1 sites; [1]) [nM] | IC50 (AVP-V2 sites; [2]) [nM] | further results
1 | CC[C@H](C)[C@@H]1NC(=O)[C@@H](Cc2ccc3ccccc3c2)NC(=O)[C@@H]2CCCN2C(=O)[C@@H](Cc2ccccc2)N(C)C(=O)[C@H](CCCCN)NC(=O)[C@H]2CCCCN2C1=O [Example 141, C-[D-2-Napthylalanyl-L-isoleucyl-D-pipecolyl-L-lysyl-D-(N-methyl)phenylalanyl-L-prolyl]] (cyclo([d2Nal]I[dPip]K[dNMeF]P)) | 45 | – | – | [^3 H]-AVP-V1: percent inhibition of radioligand at the given concentration (AVP-V1 sites): 48%; [^3 H]-AVP-V2: percent inhibition of radioligand at the given concentration (AVP-V2 sites; @ 1,000 (nM)): 78%
2 | CC[C@H](C)[C@@H]1NC(=O)[C@@H](Cc2ccc(OCc3ccccc3)cc2)NC(=O)[C@@H]2CCCN2C(=O)[C@@H](Cc2ccccc2)N(C)C(=O)[C@H](CCCCNC(=O)OC(C)(C)C)NC(=O)[C@H]2CCCCN2C1=O [Example 142, C-[D-(O-Benzyl)-tyrosinyl-L-isoleucyl-D-pipecolyl-L-(N-t-butyloxycarbonyl)lysyl-D-(N-methyl)phenylalanyl-L-prolyl]] (cyclo(I[dPip]K(Boc)[dNMeF]P[dY](Bn))) | – | > 10000 | > 10000 | inhibition at 1 µM (uterine OT receptors): 12%
3 | CC[C@H](C)[C@@H]1NC(=O)[C@@H](Cc2ccc(OC(C)(C)C)cc2)NC(=O)[C@@H]2CCCN2C(=O)[C@@H](Cc2ccccc2)N(C)C(=O)[C@H](CCCCNC(=O)OC(C)(C)C)NC(=O)[C@H]2CCCCN2C1=O [Example 144, C-[D-(O-t-Butyl)Tyrosiniyl-L-isoleucyl-D-pipecolyl-L(N-t-butyloxycarbonyl)lysyl-D-(N-methyl)phenylalanyl-L-prolyl]] (cyclo(I[dPip]K(Boc)[dNMeF]P[dY](tBu))) | – | > 10000 | 10000 | inhibition at 1 µM (uterine OT receptors): 67%
4 | CC[C@H](C)[C@@H]1NC(=O)[C@@H](Cc2ccc(OCc3ccccc3)cc2)NC(=O)[C@@H]2CCCN2C(=O)[C@@H](Cc2ccccc2)N(C)C(=O)[C@H](CCCCN)NC(=O)[C@H]2CCCCN2C1=O [Example 145, C-[D-(O-Benzyl)Tyrosyl-L-isoleucyl-D-pipecolyl-L-lysyl-D-(N-methyl)phenylalanyl-L-prolyl]] (cyclo(I[dPip]K[dNMeF]P[dY](Bn))) | – | > 10000 | 10000 | inhibition at 1 µM (uterine OT receptors): 9%
5 | CC[C@H](C)[C@@H]1NC(=O)[C@@H](Cc2ccc(O)cc2)NC(=O)[C@@H]2CCCN2C(=O)[C@@H](Cc2ccccc2)N(C)C(=O)[C@H](CCCCN)NC(=O)[C@H]2CCCCN2C1=O [Example 147, C-[D-Tyrosyl-L-isoleucyl-D-pipecolyl-L-lysyl-D-(N-methyl)phenylalanyl-L-prolyl]] (cyclo(I[dPip]K[dNMeF]P[dY])) | 860 | 10000 | 10000 | –
6 | CC[C@H](C)[C@@H]1NC(=O)[C@@H](Cc2ccc(O)cc2)NC(=O)[C@@H]2CCCN2C(=O)[C@@H](Cc2ccccc2)N(C)C(=O)[C@H](CCCCNC(=O)OC(C)(C)C)NC(=O)[C@H]2CCCCN2C1=O [Example 148, C-[D-Tyrosyl-L-isoleucyl-D-pipecolyl-L-(N-t-butyloxycarbonyl)lysyl-D-(N-methyl)phenylalanyl)-L-prolyl] (cyclo(I[dPip]K(Boc)[dNMeF]P[dY])) | – | > 10000 | > 10000 | inhibition at 1 µM (uterine OT receptors): 50%
7 | CC[C@H](C)[C@@H]1NC(=O)[C@@H](Cc2ccc(OC)cc2)NC(=O)[C@@H]2CCCN2C(=O)[C@@H](Cc2ccccc2)N(C)C(=O)[C@H](CCCCNC(=O)OC(C)(C)C)NC(=O)[C@H]2CCCCN2C1=O [Example 149, c-[D-(O-Methyl)Tyrosyl-L-isoleucyl-D-pipecolyl-L-(N-t-butyloxycarbonyl)lysyl-D-(N-methyl)phenylalanyl-L-prolyl]] (cyclo(I[dPip]K(Boc)[dNMeF]P[dY](Me))) | – | > 10000 | 10000 | inhibition at 0.1 µM (uterine OT receptors): 53%
8 | CC[C@H](C)[C@@H]1NC(=O)[C@@H](Cc2ccc(OC)cc2)NC(=O)[C@@H]2CCCN2C(=O)[C@@H](Cc2ccccc2)N(C)C(=O)[C@H](CCCCN)NC(=O)[C@H]2CCCCN2C1=O [Example 150, c-[D-(O-Methyl)Tyrosyl-L-isoleucyl-D-pipecolyl-L-lysyl-D-(N-methyl)phenylalanyl-L-prolyl]] (cyclo(I[dPip]K[dNMeF]P[dY](Me))) | 44 | 10000 | – | inhibition at 1 µM (AVP-V2 sites; @ 1,000 (nM)): 62%
9 | CC[C@H](C)[C@@H]1NC(=O)[C@@H](Cc2ccc3ccccc3c2)NC(=O)[C@@H]2CCCN2C(=O)[C@@H](Cc2ccccc2)N(C)C(=O)[C@H](CCCCNC(=O)C2C[N+]3(C)CCC2CC3)NC(=O)[C@H]2CCCCN2C1=O (stereo partly drawn) [Example 151, c-[D-2-Napthylalanyl-L-isoleucyl-D-pipecolyl-L-[N-(1-methyl-quinuclidinium-3-yl-carbonyl)]lysyl-D-(N-methyl)phenylalanyl-L-prolyl]] (cyclo(I[dPip]K(X7)[dNMeF]P[d2Nal])) | 10 | – | – | IC50 (AVP-V1 sites; [3]): 390 nM; pIC50 (AVP-V2 sites): 7.09
10 | CC[C@H](C)[C@@H]1NC(=O)[C@@H](Cc2ccc3ccccc3c2)NC(=O)[C@@H]2CCCN2C(=O)[C@@H](Cc2c[nH]cn2)NC(=O)[C@@H]2CN(C(=O)OCc3ccccc3)CCN2C(=O)[C@H]2CCCCN2C1=O [Example 158, c-[D-2-Naphthylalanyl-L-isoleucyl-D-pipecolyl-L-piperazin-2-yl-(4-carbobenzyloxy)-D-histidyl-L-prolyl]] (cyclo(I[dPip][X2][dH]P[d2Nal])) | – | > 1000 | – | inhibition at 0.01 µM (uterine OT receptors): 60%; inhibition at 1 µM (AVP-V2 sites; @ 1,000 (nM)): 68%
11 | CC[C@H](C)[C@@H]1NC(=O)[C@@H](Cc2ccc3ccccc3c2)NC(=O)[C@@H]2CCCN2C(=O)[C@@H](Cc2c[nH]cn2)NC(=O)[C@@H]2CNCCN2C(=O)[C@H]2CCCCN2C1=O [Example 159, c-[D-2-Naphthylalanyl-L-isoleucyl-D-pipecolyl-L-piperazin-2-yl-D-histidyl-L-prolyl]] (cyclo(I[dPip][Pip(4-aza)][dH]P[d2Nal])) | 1.8 | – | – | IC50 (AVP-V1 sites; [3]): 4650 nM; IC50 (AVP-V2 sites): 690 nM
12 | CC[C@H](C)[C@@H]1NC(=O)[C@@H](Cc2ccc3ccccc3c2)NC(=O)[C@@H]2CCCN2C(=O)[C@@H](Cc2c[nH]cn2)NC(=O)[C@H]2CN(C(=O)OCc3ccccc3)CCN2C(=O)[C@H]2CCCCN2C1=O [Example 160, c-[D-2-Naphthylalanyl-L-isoleucyl-D-pipecolyl-D-piperazin-2-yl-(4-carbobenzyloxy)-D-hystidyl-L-prolyl]] (cyclo(I[dPip][dPip(4-aza,4-Cbz)][dH]P[d2Nal])) | – | > 1000 | – | inhibition at 0.01 µM (uterine OT receptors): 53%; inhibition at 1 µM (AVP-V2 sites; @ 1,000 (nM)): 66%
13 | CC[C@H](C)[C@@H]1NC(=O)[C@@H](Cc2c[nH]c3ccccc23)NC(=O)[C@@H]2CCCN2C(=O)[C@@H](Cc2c[nH]c3ccccc23)NC(=O)[C@@H]2CN(CC(=O)OC(C)(C)C)CCN2C(=O)[C@H]2CCCCN2C1=O [Example 162, c-[D-Tryptophanyl-L-isoleucinyl-D-pipecolyl-L-piperazin-2-yl(4-t-butylacetyl)-D-tryptophanyl-L-prolyl]] (cyclo([dW]I[dPip][X5][dW]P)) | – | > 10000 | 10000 | inhibition at 0.1 µM (uterine OT receptors): 54%
14 | CC[C@H](C)[C@@H]1NC(=O)[C@@H](Cc2ccccc2)NC(=O)[C@@H]2CCCN2C(=O)[C@@H](Cc2ccccc2)NC(=O)[C@@H]2CNCCN2C(=O)[C@H]2CCCN2C1=O [Example 164, c-[D-Phenylalanyl-L-isoleucinyl-D-prolyl-L-piperazin-2-yl-D-phenylalanyl-L-prolyl]] (cyclo(I[dP][Pip(4-aza)][dF]P[dF])) | 1300 | 10000 | > 10000 | –
15 | CC[C@H](C)[C@@H]1NC(=O)[C@@H](CCc2ccccc2)NC(=O)[C@@H]2CCCN2C(=O)[C@@H](Cc2ccccc2)N(C)C(=O)[C@@H]2CCCCN2C(=O)[C@H]2CCCCN2C1=O [Example 165, c-[D-Homophenylalanyl-L-isoleucyl-D-pipecolyl-L-pipecolyl-N-Me-D-phenylalanyl-L-prolyl]] (cyclo(I[dPip][Pip][dNMeF]P[d(hPhe)])) | 150 | – | – | IC50 (AVP-V1 sites; [3]): 6600 nM; IC50 (AVP-V2 sites): 2600 nM
16 | CC[C@H](C)[C@H]1C(=O)N2CCCC[C@@H]2C(=O)N2CCCC[C@H]2C(=O)N(C)[C@H](Cc2ccccc2)C(=O)N2CCC[C@H]2C(=O)N(C)[C@H](CCc2ccccc2)C(=O)N1C [Example 166] (cyclo([NMeI][dPip][Pip][dNMeF]P[dNMehPhe])) | 23000 | – | – | IC50 (AVP-V1 sites; [3]): > 3000 nM; IC50 (AVP-V2 sites): > 3000 nM
